Test results published in the NIST ThermoML archive (doi:10.1021/je7003066).

Columns and labels:
[1] = refractive index (Na D-line) (dimensionless); conditions: 101.33 kPa, Liquid, Standard Abbe refractometry
[2] = 101.33 kPa, Liquid; for viscosity: Capillary tube (Ostwald / Ubbelohde) method
[3] = molar heat capacity at constant pressure; conditions: 101.33 kPa, Liquid, Small sample (50 mg) DSC

CC1CCCO1 (configuration not stated) [2-methyltetrahydrofuran]
Conditions	mass density, [2] [kg/m3]	molar heat capacity at constant pressure, [3] [J/K/mol]	refractive index, [1]	viscosity, [2] [mPa·s]
293.15 K	852.95	155.3	1.4085	0.492
303.15 K	842.8	158.6	1.4017	0.443
313.15 K	832.38	162.1	1.3959	0.416
